Laboratory results as given in patent US10947252B2, “Inhibitors of KEAP1-Nrf2 protein-protein interaction” (Janssen Pharmaceutica NV, priority 2018, dated 2021).

Columns and labels:
[1] = biological target: Kelch domain of human KEAP1 (321-624 aa) (Homo sapiens (Human), UniProt Q14145); experiment: KEAP1 KELCH ThermoFluor binding assay; details: KEAP Kelch […], 1,8-ANS, pH 7.0, average of results obtained, read-out: Tf Kd;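 further: Ligand-induced melting temperature shift of E. coli-expressed KEAP1 Kelch protein, Kd estimated from concentration-response curves of ΔTm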
[2] = system: Glo-Response ARE-luc2P HEK293 cell line; experiment: ARE luciferase reporter cell-based assay; details: Homo sapiens, HEK293, 24 h, average of results obtained;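 further: luciferase signal tracks Nrf2 activation of the ARE once compounds disrupt KEAP1-Nrf2 binding, read with One-Glo reagent, DMSO serving as low control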

Chain of Kelch domain of human KEAP1 (321-624 aa) (Q14145 321-624): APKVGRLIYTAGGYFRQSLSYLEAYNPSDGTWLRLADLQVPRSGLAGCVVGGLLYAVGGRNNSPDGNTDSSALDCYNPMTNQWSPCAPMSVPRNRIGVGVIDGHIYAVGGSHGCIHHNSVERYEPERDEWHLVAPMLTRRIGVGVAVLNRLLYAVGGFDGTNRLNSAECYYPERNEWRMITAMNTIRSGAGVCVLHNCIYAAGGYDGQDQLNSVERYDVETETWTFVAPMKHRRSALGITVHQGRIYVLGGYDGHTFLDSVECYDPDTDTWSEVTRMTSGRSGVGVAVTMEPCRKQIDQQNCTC

| SMILES | Kd [1] [nM] | EC50 [2] [nM] |
| --- | --- | --- |
| Cc1ccc([C@H](c2ccn3c(C(F)F)nnc3c2C)C(C)(C)C(=O)O)nc1CN1CC2(COC2)Oc2ncccc2S1(=O)=O (single isomer, unassigned) [Example 611, (*R)-3-(3-(Difluoromethyl)-8-methyl-[1,2,4]triazolo[4,3-a]pyridin-7-yl)-3-(6-((1′,1′-dioxidospiro[oxetane-3,4′-pyrido[2,3-b][1,4,5]oxathiazepin]-2′(3′H)-yl)methyl)-5-methylpyridin-2-yl)-2,2-dimethylpropanoic Acid] | 12800 | 574 |
| Cc1ncc([C@H](c2ccc3c(nnn3C3CC3)c2C)C(C)(C)C(=O)O)cc1CN1CC2(COC2)Oc2ncccc2S1(=O)=O (single isomer, unassigned) [Example 612, (*S)-3-(1-Cyclopropyl-4-methyl-1H-benzo[d][1,2,3]triazol-5-yl)-3-(5-((1′,1′-dioxidospiro[oxetane-3,4′-pyrido[2,3-b][1,4,5]oxathiazepin]-2′(3′H)-yl)methyl)-6-methylpyridin-3-yl)-2,2-dimethylpropanoic Acid] | 61500 | 19900 |
| Cc1ncc([C@@H](c2ccc3c(nnn3C3CC3)c2C)C(C)(C)C(=O)O)cc1CN1CC2(COC2)Oc2ncccc2S1(=O)=O (single isomer, unassigned) [Example 613, (*R)-3-(1-Cyclopropyl-4-methyl-1H-benzo[d][1,2,3]triazol-5-yl)-3-(5-((1′,1′-dioxidospiro[oxetane-3,4′-pyrido[2,3-b][1,4,5]oxathiazepin]-2′(3′H)-yl)methyl)-6-methylpyridin-3-yl)-2,2-dimethylpropanoic Acid] | < 1 | 33.2 |
| Cc1cnc2c(c1)S(=O)(=O)N(Cc1cc([C@@H](c3ccn4c(C(F)(F)F)nnc4c3C)C(C)(C)C(=O)O)ccc1C)CC1(COC1)O2 (single isomer, unassigned) [Example 614, (*S)-2,2-dimethyl-3-(4-methyl-3-((8′-methyl-1′,1′-dioxidospiro[oxetane-3,4′-pyrido[2,3-b][1,4,5]oxathiazepin]-2′(3′H)-yl)methyl)phenyl)-3-(8-methyl-3-(trifluoromethyl)-[1,2,4]triazolo[4,3-a]pyridine-7-yl)propanoic Acid] | < 1 | 0.71 |
| Cc1ccc([C@@H](c2ccn3c(C(F)(F)F)nnc3c2C)C(C)(C)C(=O)O)cc1CN1CC2(COC2)Oc2ncccc2S1(=O)=O (single isomer, unassigned) [Example 615, (*S)-3-(3-((1′,1′-dioxidospiro[oxetane-3,4′-pyrido[2,3-b][1,4,5]oxathiazepin]-2′(3′H)-yl)methyl)-4-methylphenyl)-2,2-dimethyl-3-(8-methyl-3-(trifluoromethyl)-[1,2,4]triazolo[4,3-a]pyridine-7-yl)propanoic Acid] | < 1 | 1.09 |
| Cc1ccc([C@@H](c2ccn3c(C(F)F)nnc3c2C)C(C)(C)C(=O)O)cc1CN1CC2(COC2)Oc2ncccc2S1(=O)=O (single isomer, unassigned) [Example 616, (*S)-3-(3-(difluoromethyl)-8-methyl-[1,2,4]triazolo[4,3-a]pyridine-7-yl)-3-(3-((1′,1′-dioxidospiro[oxetane-3,4′-pyrido[2,3-b][1,4,5]oxathiazepin]-2′(3′H)-yl)methyl)-4-methylphenyl)-2,2-dimethylpropanoic Acid] | < 1 | 2.14 |
| Cc1cnc2c(c1)S(=O)(=O)N(Cc1cc([C@@H](c3ccn4c(C(F)F)nnc4c3C)C(C)(C)C(=O)O)ccc1C)CC1(COC1)O2 (single isomer, unassigned) [Example 617, (*S)-3-(3-(Difluoromethyl)-8-methyl-[1,2,4]triazolo[4,3-a]pyridin-7-yl)-2,2-dimethyl-3-(4-methyl-3-((8′-methyl-1′,1′-dioxidospiro[oxetane-3,4′-pyrido[2,3-b][1,4,5]oxathiazepin]-2′(3′H)-yl)methyl)phenyl)propanoic Acid] | < 1 | 1.15 |
| Cc1cnc2c(c1)S(=O)(=O)N(Cc1cc([C@H](c3ccn4c(C5CC5)nnc4c3C)C(C)(C)C(=O)O)ccc1C)CC1(COC1)O2 (single isomer, unassigned) [Example 619, (*R)-3-(3-Cyclopropyl-8-methyl-[1,2,4]triazolo[4,3-a]pyridin-7-yl)-2,2-dimethyl-3-(4-methyl-3-((8′-methyl-1′,1′-dioxidospiro[oxetane-3,4′-pyrido[2,3-b][1,4,5]oxathiazepin]-2′(3′H)-yl)methyl)phenyl)propanoic Acid] | < 1 | 4.48 |
| Cc1ccc([C@H](c2ccn3c(C4CC4)nnc3c2C)C(C)(C)C(=O)O)cc1CN1CC2(COC2)Oc2ncccc2S1(=O)=O (single isomer, unassigned) [Example 620, (*R)-3-(3-Cyclopropyl-8-methyl-[1,2,4]triazolo[4,3-a]pyridin-7-yl)-3-(3-((1′,1′-dioxidospiro[oxetane-3,4′-pyrido[2,3-b][1,4,5]oxathiazepin]-2′(3′H)-yl)methyl)-4-methylphenyl)-2,2-dimethylpropanoic Acid] | < 1 | 7.87 |
| Cc1ccc([C@@H](c2ccn3c(C4CC4)nnc3c2C)C(C)(C)C(=O)O)cc1CN1CC2(COC2)Oc2ncccc2S1(=O)=O (single isomer, unassigned) [Example 621, (*S)-3-(3-Cyclopropyl-8-methyl-[1,2,4]triazolo[4,3-a]pyridin-7-yl)-3-(3-((1′,1′-dioxidospiro[oxetane-3,4′-pyrido[2,3-b][1,4,5]oxathiazepin]-2′(3′H)-yl)methyl)-4-methylphenyl)-2,2-dimethylpropanoic Acid] | < 1 | 5640 |
| Cc1cnc2c(c1)S(=O)(=O)N(Cc1cc([C@@H](c3ccn4c(C5CC5)nnc4c3C)C(C)(C)C(=O)O)ccc1C)CC1(COC1)O2 (single isomer, unassigned) [Example 622, (*S)-3-(3-Cyclopropyl-8-methyl-[1,2,4]triazolo[4,3-a]pyridin-7-yl)-2,2-dimethyl-3-(4-methyl-3-((8′-methyl-1′,1′-dioxidospiro[oxetane-3,4′-pyrido[2,3-b][1,4,5]oxathiazepin]-2′(3′H)-yl)methyl)phenyl)propanoic Acid] | 2530 | 3230 |
| Cc1cnc2c(c1)S(=O)(=O)N(Cc1cc([C@@H](c3ccc4c(nnn4C4CC4)c3C)C(C)(C)C(=O)O)cnc1C)CC1(COC1)O2 (single isomer, unassigned) [Example 623, (*R)-3-(1-Cyclopropyl-4-methyl-1H-benzo[d][1,2,3]triazol-5-yl)-2,2-dimethyl-3-(6-methyl-5-((8′-methyl-1′,1′-dioxidospiro[oxetane-3,4′-pyrido[2,3-b][1,4,5]]oxathiazepin]-2′(3′H)-yl)methyl)pyridine-3-yl)propanoic Acid] | < 1 | 7.5 |

More lines, main results first:

| Kd [1] [nM] | SMILES | EC50 [2] [nM] |
| --- | --- | --- |
| 18400 | Cc1cnc2c(c1)S(=O)(=O)N(Cc1cc([C@H](c3ccc4c(nnn4C4CC4)c3C)C(C)(C)C(=O)O)cnc1C)CC1(COC1)O2 (single isomer, unassigned) [Example 624, (*S)-3-(1-Cyclopropyl-4-methyl-1H-benzo[d][1,2,3]triazol-5-yl)-2,2-dimethyl-3-(6-methyl-5-((8′-methyl-1′,1′-dioxidospiro[oxetane-3,4′-pyrido[2,3-b][1,4,5]]oxathiazepin]-2′(3′H)-yl)methyl)pyridine-3-yl)propanoic Acid] | 3660 |
| < 1 | Cc1cc2c(nc1OCCN1CCCC1)OC1(CC1)CN(Cc1cc([C@@H](c3ccc4c(nnn4C4CC4)c3C)C(C)(C)C(=O)O)cnc1C)S2(=O)=O (single isomer, unassigned) [Example 625, (*R)-3-(1-Cyclopropyl-4-methyl-1H-benzo[d][1,2,3]triazol-5-yl)-2,2-dimethyl-3-(6-methyl-5-((8′-methyl-1′,1′-dioxido-7′-(2-(pyrrolidine-1-yl)ethoxy)spiro[cyclopropane-1,4′-pyrido[2,3-b][1,4,5]]oxathiazepin]-2′(3′H)-yl)methyl)pyridine-3-yl)propanoic Acid] | 70.6 |
| 2980 | Cc1cnc2c(c1)S(=O)(=O)N(Cc1nc([C@H](c3ccn4c(C(F)F)nnc4c3C)C(C)(C)C(=O)O)ccc1C)CC1(COC1)O2 (single isomer, unassigned) [Example 626, (*R)-3-(3-(Difluoromethyl)-8-methyl-[1,2,4]triazolo[4,3-a]pyridin-7-yl)-2,2-dimethyl-3-(5-methyl-6-((8′-methyl-1′,1′-dioxidospiro[oxetane-3,4′-pyrido[2,3-b][1,4,5]oxathiazepin]-2′(3′H)-yl)methyl)pyridin-2-yl)propanoic Acid] | 229 |
| < 1 | Cc1cnc2c(c1)S(=O)(=O)N(Cc1nc([C@@H](c3ccn4c(C(F)F)nnc4c3C)C(C)(C)C(=O)O)ccc1C)CC1(COC1)O2 (single isomer, unassigned) [Example 627, (*S)-3-(3-(Difluoromethyl)-8-methyl-[1,2,4]triazolo[4,3-a]pyridin-7-yl)-2,2-dimethyl-3-(5-methyl-6-((8′-methyl-1′,1′-dioxidospiro[oxetane-3,4′-pyrido[2,3-b][1,4,5]oxathiazepin]-2′(3′H)-yl)methyl)pyridin-2-yl)propanoic Acid] | 1.35 |
| 15400 | Cc1cc2c(nc1OCCN1CCCC1)OC1(CC1)CN(Cc1cc([C@H](c3ccc4c(nnn4C4CC4)c3C)C(C)(C)C(=O)O)cnc1C)S2(=O)=O (single isomer, unassigned) [Example 628, (*S)-3-(1-Cyclopropyl-4-methyl-1H-benzo[d][1,2,3]triazol-5-yl)-2,2-dimethyl-3-(6-methyl-5-((8′-methyl-1′,1′-dioxido-7′-(2-(pyrrolidine-1-yl)ethoxy)spiro[cyclopropane-1,4′-pyrido[2,3-b][1,4,5]]oxathiazepin]-2′(3′H)-yl)methyl)pyridine-3-yl)propanoic Acid] | > 20000 |
